Biological target: mutant CFTR (Homo sapiens, UniProt P13569)
Assay: Fluorescence assay for CFTR activity (halide-sensitive YFP, HS-YFP)
Type: cell-based
Conditions: CFBE41o- and FRT cells with stable expression of mutant CFTR
Experimental: Mutant CFTR activity was determined with the functional assay based on the halide-sensitive yellow fluorescent protein, HS—YFP (Galietta et al., FEBS Lett 499:220-224, 2001). CFBE41o- and FRT cells with stable expression of mutant CFTR and HS—YFP were plated on clear-bottom 96-well black microplates (Code 3603, Corning Life Sciences) at a density of 50,000 cells/well and kept at 37° C. in 5% CO2 for 24 hours.
For the corrector assay, cells were treated for further 24 hours with test compounds, vehicle (DMSO), or the positive control VX-809. After treatment, the culture medium was removed and cells in each well were stimulated for 30 min at 37° C. with 60 μL PBS (containing 137 mM NaCl, 2.7 mM KCl, 8.1 mM Na2HPO4, 1.5 mM KH2PO4, 1 mM CaCl2, and 0.5 mM MgCl2) plus forskolin (20 μM) and genistein (50 μM).
For determination of potentiator activity on F508del-CFTR, cells were incubated for 24 hours at 27° C. to allow trafficking of the mutant protein to plasma membrane. Cells were then stimulated with for 30 min with PBS containing forskolin (20 μM) plus the compound to be tested at the desired concentration. For determination of potentiator activity on G551D-CFTR or G1349D-CFTR, cells were directly stimulated with forskolin plus test compound without previous incubation at low temperature. At the time of assay, microplates carrying CFBE41o- or FRT cells were transferred to microplate readers (BMG Labtech) equipped with high-quality excitation (HQ500/20×: 500±10 nm) and emission (HQ535/30M: 535±15 nm) filters for YFP (Chroma Technology). The assay consisted of a continuous 14 s fluorescence reading with 2 s before and 12 s after injection of an iodide-containing solution (165 μL of a modified PBS containing I^− instead of Cl^−; final I^− concentration in the well: 100 mM). Data were normalized to the initial background-subtracted fluorescence. Enhanced CFTR activity, induced by correctors and/or potentiators, results in accelerated I^− influx that in turn causes faster HS—YFP quenching (Pedemonte et al., Mol Pharmacol 68:1736-1746, 2005; Pedemonte et al., J Clin Invest 115:2564-2571, […]). To determine fluorescence quenching rate associated with I^− influx, the final 10 s of data for each well were fitted with an exponential function to extrapolate initial slope (dF/dt).
EC50 obtained are illustrated in Table 1 wherein+: EC50>2 μM; ++: 1.0 μM <EC50<2 μM; +++: EC50<1 μM.

Chain of mutant CFTR (P13569 with tags, fused parts or gaps DEL508-508): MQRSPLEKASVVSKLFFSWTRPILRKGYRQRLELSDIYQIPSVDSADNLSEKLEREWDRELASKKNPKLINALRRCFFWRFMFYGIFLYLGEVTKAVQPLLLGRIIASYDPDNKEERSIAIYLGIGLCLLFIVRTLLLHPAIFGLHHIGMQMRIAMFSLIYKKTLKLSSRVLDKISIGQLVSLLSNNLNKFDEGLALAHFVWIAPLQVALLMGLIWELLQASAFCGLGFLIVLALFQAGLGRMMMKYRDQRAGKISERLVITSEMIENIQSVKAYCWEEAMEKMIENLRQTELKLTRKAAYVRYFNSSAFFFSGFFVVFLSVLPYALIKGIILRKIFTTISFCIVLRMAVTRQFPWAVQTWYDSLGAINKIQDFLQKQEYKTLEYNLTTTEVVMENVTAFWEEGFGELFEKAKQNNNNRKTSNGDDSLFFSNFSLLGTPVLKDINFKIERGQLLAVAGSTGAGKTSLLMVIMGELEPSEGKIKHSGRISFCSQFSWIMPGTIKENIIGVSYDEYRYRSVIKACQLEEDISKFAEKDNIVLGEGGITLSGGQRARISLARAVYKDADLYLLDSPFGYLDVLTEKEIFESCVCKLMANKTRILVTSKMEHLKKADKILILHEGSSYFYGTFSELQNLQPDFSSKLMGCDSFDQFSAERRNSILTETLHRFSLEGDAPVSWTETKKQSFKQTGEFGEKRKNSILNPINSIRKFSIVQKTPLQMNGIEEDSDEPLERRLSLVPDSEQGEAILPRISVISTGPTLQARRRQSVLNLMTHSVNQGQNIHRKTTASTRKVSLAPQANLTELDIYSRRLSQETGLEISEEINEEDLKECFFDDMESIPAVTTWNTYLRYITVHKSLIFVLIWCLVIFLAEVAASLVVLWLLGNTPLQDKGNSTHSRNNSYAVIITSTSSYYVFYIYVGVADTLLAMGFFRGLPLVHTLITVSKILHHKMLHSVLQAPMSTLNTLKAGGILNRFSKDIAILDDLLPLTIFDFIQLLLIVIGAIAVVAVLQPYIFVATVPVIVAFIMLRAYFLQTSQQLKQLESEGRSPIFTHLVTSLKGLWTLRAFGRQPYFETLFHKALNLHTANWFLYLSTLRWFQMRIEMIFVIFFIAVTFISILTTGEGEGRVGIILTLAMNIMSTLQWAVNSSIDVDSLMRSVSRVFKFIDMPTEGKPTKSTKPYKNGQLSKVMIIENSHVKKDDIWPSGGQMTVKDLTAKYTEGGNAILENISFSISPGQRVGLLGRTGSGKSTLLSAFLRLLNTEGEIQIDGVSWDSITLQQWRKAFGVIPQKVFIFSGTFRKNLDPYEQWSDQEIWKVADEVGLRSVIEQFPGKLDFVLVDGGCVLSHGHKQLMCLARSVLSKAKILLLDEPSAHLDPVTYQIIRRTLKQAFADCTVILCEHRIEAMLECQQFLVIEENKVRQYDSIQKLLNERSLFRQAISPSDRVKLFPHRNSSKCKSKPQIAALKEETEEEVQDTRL

Structure (SMILES)	EC50
Cc1ccc(S(=O)(=O)N2CCOC(c3c(C(N)=O)sc4ccccc34)C2)cc1 (racemic) [compound 033, rac-3-[4-(p-tolylsulfonyl)morpholin-2-yl]benzothiophene-2-carboxamide]	< 1000 nM
NC(=O)c1sc2ccccc2c1C1CN(S(=O)(=O)c2cccc(C(F)(F)F)c2)CCO1 (racemic) [compound 035, rac-3-[4-[3-(trifluoromethyl)phenyl]sulfonylmorpholin-2-yl]benzothiophene-2-carboxamide]	< 1000 nM
CC(C)(C)c1ccc(S(=O)(=O)N2CCOC(c3c(C(N)=O)sc4ccccc34)C2)cc1 (racemic) [compound 036, rac-3-[4-(4-tert-butylphenyl)sulfonylmorpholin-2-yl]benzothiophene-2-carboxamide]	< 1000 nM
N#Cc1ccc(S(=O)(=O)N2CCOC(c3c(C(N)=O)sc4ccccc34)C2)cc1 (racemic) [compound 037, rac-3-[4-(4-cyanophenyl)sulfonylmorpholin-2-yl]benzothiophene-2-carboxamide]	> 2000 nM
NC(=O)c1sc2ccccc2c1C1CN(S(=O)(=O)c2ccc(F)c(C(F)(F)F)c2)CCO1 (racemic) [compound 038, rac-3-[4-[4-fluoro-3-(trifluoromethyl)phenyl]sulfonylmorpholin-2-yl]benzothiophene-2-carboxamide]	> 2000 nM
NC(=O)c1sc2ccccc2c1C1CN(S(=O)(=O)c2ccc(Cl)cc2)CCO1 (racemic) [compound 040, rac-3-[4-(4-chlorophenyl)sulfonylmorpholin-2-yl]benzothiophene-2-carboxamide]	1000 to 2000 nM
COc1cc(S(=O)(=O)N2CCOC(c3c(C(N)=O)sc4ccccc34)C2)ccc1C(F)(F)F (racemic) [compound 045, rac-3-[4-[3-methoxy-4-(trifluoromethyl)phenyl]sulfonylmorpholin-2-yl]benzothiophene-2-carboxamide]	1000 to 2000 nM
COc1ccc(S(=O)(=O)N2CCOC(c3c(C(N)=O)sc4ccccc34)C2)cc1C(F)(F)F (racemic) [compound 046, rac-3-[4-[4-methoxy-3-(trifluoromethyl)phenyl]sulfonylmorpholin-2-yl]benzothiophene-2-carboxamide]	< 1000 nM
COc1ccc(S(=O)(=O)N2CCOC(c3c(C(N)=O)sc4ccccc34)C2)cc1[N+](=O)[O-] (racemic) [compound 047, rac-3-[4-(4-methoxy-3-nitro-phenyl)sulfonylmorpholin-2-yl]benzothiophene-2-carboxamide]	> 2000 nM
COc1cccc(S(=O)(=O)N2CCOC(c3c(C(N)=O)sc4ccccc34)C2)c1 (racemic) [compound 048, rac-3-[4-(3-methoxyphenyl)sulfonylmorpholin-2-yl]benzothiophene-2-carboxamide]	> 2000 nM
NC(=O)c1sc2ccccc2c1C1CN(S(=O)(=O)c2cccc(OC(F)(F)F)c2)CCO1 (racemic) [compound 049, rac-3-[4-[3-(trifluoromethoxy)phenyl]sulfonylmorpholin-2-yl]benzothiophene-2-carboxamide]	> 2000 nM
COc1ccccc1S(=O)(=O)N1CCOC(c2c(C(N)=O)sc3ccccc23)C1 (racemic) [compound 050, rac-3-[4-(2-methoxyphenyl)sulfonylmorpholin-2-yl]benzothiophene-2-carboxamide]	> 2000 nM
NC(=O)c1sc2ccccc2c1C1CN(S(=O)(=O)c2ccc(-c3ccccc3)cc2)CCO1 (racemic) [compound 051, rac-3-[4-(4-phenylphenyl)sulfonylmorpholin-2-yl]benzothiophene-2-carboxamide]	< 1000 nM
NC(=O)c1sc2ccccc2c1C1CN(S(=O)(=O)c2ccc3ccccc3c2)CCO1 (racemic) [compound 052, rac-3-[4-(2-naphthylsulfonyl)morpholin-2-yl]benzothiophene-2-carboxamide]	> 2000 nM
COc1ccc(S(=O)(=O)N2CCOC(c3c(C(N)=O)sc4ccccc34)C2)cc1F (racemic) [compound 053, rac-3-[4-(3-fluoro-4-methoxy-phenyl)sulfonylmorpholin-2-yl]benzothiophene-2-carboxamide]	> 2000 nM
COc1ccc(S(=O)(=O)N2CCOC(c3c(C(N)=O)sc4ccccc34)C2)cc1OC (racemic) [compound 054, rac-3-[4-(3,4-dimethoxyphenyl)sulfonylmorpholin-2-yl]benzothiophene-2-carboxamide]	> 2000 nM

Structure (SMILES)	EC50
CN1CCOc2cc(S(=O)(=O)N3CCOC(c4c(C(N)=O)sc5ccccc45)C3)ccc21 (racemic) [compound 057, rac-3-[4-[(4-methyl-2,3-dihydro-1,4-benzoxazin-7-yl)sulfonyl]morpholin-2-yl]benzothiophene-2-carboxamide]	< 1000 nM
NC(=O)c1sc2ccccc2c1C1CN(S(=O)(=O)C2CCOCC2)CCO1 (racemic) [compound 058, rac-3-[4-tetrahydropyran-4-ylsulfonylmorpholin-2-yl]benzothiophene-2-carboxamide]	> 2000 nM
COCCS(=O)(=O)N1CCOC(c2c(C(N)=O)sc3ccccc23)C1 (racemic) [compound 059, rac-3-[4-(2-methoxyethylsulfonyl)morpholin-2-yl]benzothiophene-2-carboxamide]	> 2000 nM
NC(=O)c1sc2ccccc2c1C1CN(S(=O)(=O)c2ccc(S(F)(F)(F)(F)F)cc2)CCO1 (racemic) [compound 060, rac-3-[4-[4-(pentafluoro-lambda6-sulfanyl)phenyl]sulfonylmorpholin-2-yl]benzothiophene-2-carboxamide]	1000 to 2000 nM
CCCCS(=O)(=O)N1CCOC(c2c(C(N)=O)sc3ccccc23)C1 (racemic) [compound 061, rac-3-[4-butylsulfonylmorpholin-2-yl]benzothiophene-2-carboxamide]	> 2000 nM
N#Cc1cccc(S(=O)(=O)N2CCOC(c3c(C(N)=O)sc4ccccc34)C2)c1 (racemic) [compound 062, rac-3-[4-(3-cyanophenyl)sulfonylmorpholin-2-yl]benzothiophene-2-carboxamide]	> 2000 nM
COC(=O)c1ccc(S(=O)(=O)N2CCOC(c3c(C(N)=O)sc4ccccc34)C2)cc1 (racemic) [compound 063, rac-methyl 4-[2-(2-carbamoylbenzothiophen-3-yl)morpholin-4-yl]sulfonylbenzoate]	> 2000 nM
CC(C)(C)OC(=O)N1CCC(S(=O)(=O)N2CCOC(c3c(C(N)=O)sc4ccccc34)C2)CC1 (racemic) [compound 064, rac-tert-butyl 4-[2-(2-carbamoylbenzothiophen-3-yl)morpholin-4-yl]sulfonylpiperidine-1-carboxylate]	> 2000 nM
NC(=O)c1sc2ccccc2c1C1CN(S(=O)(=O)c2ccc([N+](=O)[O-])cc2)CCO1 (racemic) [compound 065, rac-3-[4-(4-nitrophenyl)sulfonylmorpholin-2-yl]benzothiophene-2-carboxamide]	> 2000 nM
NC(=O)c1sc2ccccc2c1C1CN(S(=O)(=O)c2ccccc2C(F)(F)F)CCO1 (racemic) [compound 066, rac-3-[4-[2-(trifluoromethyl)phenyl]sulfonylmorpholin-2-yl]benzothiophene-2-carboxamide]	> 2000 nM
NC(=O)c1sc2ccccc2c1C1CN(S(=O)(=O)c2ccccc2OC(F)(F)F)CCO1 (racemic) [compound 067, rac-3-[4-[2-(trifluoromethoxy)phenyl]sulfonylmorpholin-2-yl]benzothiophene-2-carboxamide]	> 2000 nM
NC(=O)c1sc2ccccc2c1C1CN(S(=O)(=O)c2ccc(O)cc2)CCO1 (racemic) [compound 068, rac-3-[4-(4-hydroxyphenyl)sulfonylmorpholin-2-yl]benzothiophene-2-carboxamide]	> 2000 nM
CC(C)Oc1ccc(S(=O)(=O)N2CCOC(c3c(C(N)=O)sc4ccccc34)C2)cc1 (racemic) [compound 069, rac-3-[4-(4-isopropoxyphenyl)sulfonylmorpholin-2-yl]benzothiophene-2-carboxamide]	< 1000 nM
NC(=O)C1=C(C2CN(S(=O)(=O)c3ccc(C(F)(F)F)c(F)c3)CCO2)c2ccccc2S1(=O)=O (racemic) [compound 074, rac-1,1-dioxo-3-[4-[3-fluoro-4-(trifluoromethyl)phenyl]sulfonylmorpholin-2-yl]benzothiophene-2-carboxamide]	< 1000 nM
Cc1cc(S(=O)(=O)N2CCO[C@@H](c3c(C(N)=O)sc4ccccc34)C2)ccc1F (single isomer, unassigned) [compound 014]	> 2000 nM
